The values below come from paper PMC9202514 (FASEB journal : official publication of the Federation of …, 2022).

Each structure is given as a SMILES string.

One test addresses T1, GmITPK2 (Glycine max, UniProt A7X665).
T1 sequence (A7X665 1-315): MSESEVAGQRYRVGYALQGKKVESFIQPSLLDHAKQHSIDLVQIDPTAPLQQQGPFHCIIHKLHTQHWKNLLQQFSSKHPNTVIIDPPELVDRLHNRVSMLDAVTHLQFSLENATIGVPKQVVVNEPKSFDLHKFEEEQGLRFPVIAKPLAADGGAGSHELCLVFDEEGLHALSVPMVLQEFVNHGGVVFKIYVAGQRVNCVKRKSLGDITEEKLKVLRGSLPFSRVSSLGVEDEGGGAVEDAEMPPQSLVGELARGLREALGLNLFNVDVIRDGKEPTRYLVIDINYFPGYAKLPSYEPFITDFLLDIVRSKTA
The experiment in a line: Ins. Conditions: 1 mM ADP, pH 7.2, 25 °C. Format: biochemical.

In the next test the target is T2, GmITPK1 (Glycine max, UniProt A7X657).
T2 sequence (A7X657 1-339): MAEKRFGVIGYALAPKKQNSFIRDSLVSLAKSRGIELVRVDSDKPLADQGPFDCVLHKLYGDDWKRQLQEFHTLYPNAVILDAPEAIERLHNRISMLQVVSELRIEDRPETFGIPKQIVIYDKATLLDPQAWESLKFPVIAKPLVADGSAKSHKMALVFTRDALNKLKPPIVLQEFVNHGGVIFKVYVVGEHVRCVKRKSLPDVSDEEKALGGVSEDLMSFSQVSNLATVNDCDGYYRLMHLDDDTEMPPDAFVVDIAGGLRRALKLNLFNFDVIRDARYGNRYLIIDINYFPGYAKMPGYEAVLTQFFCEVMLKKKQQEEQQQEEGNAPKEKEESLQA
Briefly: InsP6 kinase activity assay. Format: biochemical. The settings on record: 1 mM ATP, pH 7.2, 25 °C.

`O=P(O)(O)O[C@@H]1[C@@H](OP(=O)(O)O)[C@H](OP(=O)(O)O)[C@H](O)[C@H](OP(=O)(O)O)[C@H]1OP(=O)(O)O` [Ins(1,3,4,5,6)P5]: the “Ins(1,3,4,5,6)P5 phosphatase activity assay” value at GmITPK2 is “GmITPK2 exhibited the higher activity”.

Turning to `O=P(O)(O)O[C@H]1[C@H](OP(=O)(O)O)[C@@H](OP(=O)(O)O)[C@H](OP(=O)(O)O)[C@@H](OP(=O)(O)O)[C@H]1OP(=O)(O)O` [InsP6], the “InsP6 kinase activity assay” value on GmITPK1 was “recombinant His6MBP-GmITPK1 is an active InsP6 kinase”.
